This note sets out measurements from patent publication US20260274829A1, “NEW E3 UBIQUITIN LIGASE LIGAND, PROTEIN DEGRADATION AGENT AND USE THEREOF” (GLUETACS THERAPEUTICS (SHANGHAI) CO., LTD., priority 2023, published 2026).

T1 sequence (Q96SW2 whole entry): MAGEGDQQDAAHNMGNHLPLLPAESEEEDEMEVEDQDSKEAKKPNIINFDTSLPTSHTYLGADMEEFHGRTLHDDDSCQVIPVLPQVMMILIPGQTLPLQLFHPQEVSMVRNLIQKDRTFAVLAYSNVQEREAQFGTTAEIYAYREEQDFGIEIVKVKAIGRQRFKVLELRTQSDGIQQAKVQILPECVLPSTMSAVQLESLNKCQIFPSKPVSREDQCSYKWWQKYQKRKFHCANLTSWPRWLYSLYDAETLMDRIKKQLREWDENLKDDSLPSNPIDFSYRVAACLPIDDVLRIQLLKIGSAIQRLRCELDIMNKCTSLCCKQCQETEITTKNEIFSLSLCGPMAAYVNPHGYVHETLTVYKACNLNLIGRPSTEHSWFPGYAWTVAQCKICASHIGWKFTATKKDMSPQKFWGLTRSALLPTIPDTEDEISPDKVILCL

The assay addresses T1, human Cereblon WT GST-tagged protein (Homo sapiens, UniProt Q96SW2).
T1 construct: purchased CISBIO 64BDCRBNPEH
The assay can be described thus: CRBN binding, HTRF CEREBLON BINDING kit. The conditions noted are these: CRBN binding, HTRF CEREBLON BINDING kit. In outline: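 Binding inhibition was calculated from the 665/620 nm emission ratios, with blank wells and solvent wells as references. Test compounds competed for GST-tagged human Cereblon WT against a Thalidomide-Re reagent paired with GST Eu antibody. Plates were sealed and held at room temperature for 3 hours before the HTRF read.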
For orientation: Time-resolved FRET reads energy transfer from a long-lived donor to a nearby acceptor.
By IC50 is commonly meant the concentration at which inhibition is half-maximal. Higher therefore signals lower potency. Compound `O=C1CCN(c2ccc(CN3CCC(N4CCN(c5ccc(-c6cc(F)c7c(c6)C(=O)N(C(C(=O)Nc6nccs6)c6ncn8c6CCC8)C7)cc5)CC4)CC3)cc2)C(=O)N1` (stereo not shown) [GT-06327, 2-(6,7-dihydro-5H-pyrrolo[1,2-c]imidazol-1-yl)-2-(6-(4-(4-(1-(4-(2,4-dioxotetrahydropyrimidin-1(2H)-yl)benzyl)piperidin-4-yl)piperazin-1-yl)phenyl)-4-fluoro-1-oxoisoindolin-2-yl)-N-(thiazol-2-yl)acetamide] had an IC50 of 500 to 1000 nM.

In the case of `O=C1CCN(c2cccc(CN3CCC(N4CCN(c5ccc(-c6cc(F)c7c(c6)C(=O)N(C(C(=O)Nc6nccs6)c6ncn8c6CCC8)C7)cc5)CC4)CC3)c2)C(=O)N1` (stereo not shown) [GT-06328, 2-(6,7-dihydro-5H-pyrrolo[1,2-c]imidazol-1-yl)-2-(6-(4-(4-(1-(3-(2,4-dioxotetrahydropyrimidin-1(2H)-yl)benzyl)piperidin-4-yl)piperazin-1-yl)phenyl)-4-fluoro-1-oxoisoindolin-2-yl)-N-(thiazol-2-yl)acetamide], the IC50 is 500 to 1000 nM.

For `O=C1CCN(c2ccc(CN3CCC(N4CCN(c5ccc(-c6cc(F)c7c(c6)C(=O)N(C(C(=O)Nc6nccs6)c6ncn8c6CCC8)C7)cc5)CC4)CC3)nc2)C(=O)N1` (stereo not shown) [GT-06329, 2-(6,7-dihydro-5H-pyrrolo[1,2-c]imidazol-1-yl)-2-(6-(4-(4-(1-((5-(2,4-dioxotetrahydropyrimidin-1(2H)-yl)pyridin-2-yl)methyl)piperidin-4-yl)piperazin-1-yl)phenyl)-4-fluoro-1-oxoisoindolin-2-yl)-N-(thiazol-2-yl)acetamide], the IC50 lay in the range of 1000 to 1900 nM.

As to `O=C1CCC(Nc2cccc(CN3CCC(N4CCN(c5ccc(-c6cc(F)c7c(c6)C(=O)N(C(C(=O)Nc6nccs6)c6ncn8c6CCC8)C7)cc5)CC4)CC3)c2)C(=O)N1` (stereo not shown) [GT-06331, 2-(6,7-dihydro-5H-pyrrolo[1,2-c]imidazol-1-yl)-2-(6-(4-(4-(1-(3-((2,6-dioxopiperidin-3-yl)amino)benzyl)piperidin-4-yl)piperazin-1-yl)phenyl)-4-fluoro-1-oxoisoindolin-2-yl)-N-(thiazol-2-yl)acetamide], the IC50 is 1000 to 1900 nM.

Consider `CN(C)C(=O)c1cc2cnc(Nc3ccc(N4CCN(Cc5ccc(C6CCC(=O)NC6=O)cc5)CC4)cn3)nc2n1C1CCCC1` (stereo not shown) [GT-06339, 7-cyclopentyl-2-((5-(4-(4-(2,6-dioxopiperidin-3-yl)benzyl)piperazin-1-yl)pyridin-2-yl)amino)-N,N-dimethyl-7H-pyrrolo[2,3-d]pyrimidine-6-carboxamide], for which the IC50 was less than 500 nM.

Turning to `CN(C)C(=O)c1cc2cnc(Nc3ccc(N4CCN(Cc5ccc(N6CCC(=O)NC6=O)cc5)CC4)cn3)nc2n1C1CCCC1` [GT-06340, 7-cyclopentyl-2-((5-(4-(4-(2,4-dioxotetrahydropyrimidin-1(2H)-yl)benzyl)piperazin-1-yl)pyridin-2-yl)amino)-N,N-dimethyl-7H-pyrrolo[2,3-d]pyrimidine-6-carboxamide], the IC50 lay in the range of 500 to 1000 nM.

On to `CN(C)C(=O)c1cc2cnc(Nc3ccc(N4CCN(Cc5cccc(N6CCC(=O)NC6=O)c5)CC4)cn3)nc2n1C1CCCC1` [GT-06341, 7-cyclopentyl-2-((5-(4-(3-(2,4-dioxotetrahydropyrimidin-1(2H)-yl)benzyl)piperazin-1-yl)pyridin-2-yl)amino)-N,N-dimethyl-7H-pyrrolo[2,3-d]pyrimidine-6-carboxamide], for which the IC50 fell in the range of 500 to 1000 nM.

Turning to `CN(C)C(=O)c1cc2cnc(Nc3ccc(N4CCN(Cc5ccc(N6CCC(=O)NC6=O)cn5)CC4)cn3)nc2n1C1CCCC1` [GT-06342, 7-cyclopentyl-2-((5-(4-((5-(2,4-dioxotetrahydropyrimidin-1(2H)-yl)pyridin-2-yl)methyl)piperazin-1-yl)pyridin-2-yl)amino)-N,N-dimethyl-7H-pyrrolo[2,3-d]pyrimidine-6-carboxamide], the IC50 fell in the range of 1000 to 1900 nM.

Consider `Cc1ccc(-c2c(C)noc2C)cc1N(CC1CCN(Cc2ccc(N3CCC(=O)NC3=O)cn2)CC1)c1ccc(C2(C#N)CC2)cc1` [GT-06411, 1-(4-((5-(3,5-dimethylisoxazol-4-yl)-2-methylphenyl)((1-((5-(2,4-dioxotetrahydropyrimidin-1(2H)-yl)pyridin-2-yl)methyl)piperidin-4-yl)methyl)amino)phenyl)cyclopropane-1-carbonitrile], for which the IC50 was in the range of 500 to 1000 nM.

In turn, `Cn1cc(-c2cc(S(C)(=O)=O)ccc2OCc2ccc(C3CCC(=O)NC3=O)cc2)c2cc[nH]c2c1=O` (stereo not shown) [GT-06415, 3-(4-((2-(6-methyl-7-oxo-6,7-dihydro-1H-pyrrolo[2,3-c]pyridin-4-yl)-4-(methylsulfonyl)phenoxy)methyl)phenyl)piperidine-2,6-dione] yielded an IC50 of less than 500 nM.

On to `Cn1cc(-c2cc(S(C)(=O)=O)ccc2OCc2ccc(N3CCC(=O)NC3=O)cn2)c2cc[nH]c2c1=O` [GT-06416, 1-(6-((2-(6-methyl-7-oxo-6,7-dihydro-1H-pyrrolo[2,3-c]pyridin-4-yl)-4-(methylsulfonyl)phenoxy)methyl)pyridin-3-yl)dihydropyrimidine-2,4(1H,3H)-dione], for which the IC50 fell in the range of 1000 to 1900 nM.

For `CN(C)C(=O)c1cc2cnc(Nc3ccc(N4CCC(N(C)Cc5ccc(C6CCC(=O)NC6=O)cc5)CC4)cn3)nc2n1C1CCCC1` (stereo not shown) [GT-06490, 7-cyclopentyl-2-((5-(4-((4-(2,6-dioxopiperidin-3-yl)benzyl)(methyl)amino)piperidin-1-yl)pyridin-2-yl)amino)-N,N-dimethyl-7H-pyrrolo[2,3-d]pyrimidine-6-carboxamide], the IC50 lay in the range of 500 to 1000 nM.

`CN(C)C(=O)c1cc2cnc(Nc3ccc(N4CCC(N(C)Cc5ccc(N6CCC(=O)NC6=O)cc5)CC4)cn3)nc2n1C1CCCC1` [GT-06491, 7-cyclopentyl-2-((5-(4-((4-(2,4-dioxotetrahydropyrimidin-1(2H)-yl)benzyl)(methyl)amino)piperidin-1-yl)pyridin-2-yl)amino)-N,N-dimethyl-7H-pyrrolo[2,3-d]pyrimidine-6-carboxamide] returned an IC50 of 500 to 1000 nM.

With `CN(C)C(=O)c1cc2cnc(Nc3ccc(N4CCC(N(C)Cc5cccc(N6CCC(=O)NC6=O)c5)CC4)cn3)nc2n1C1CCCC1` [GT-06492, 7-cyclopentyl-2-((5-(4-((3-(2,4-dioxotetrahydropyrimidin-1(2H)-yl)benzyl)(methyl)amino)piperidin-1-yl)pyridin-2-yl)amino)-N,N-dimethyl-7H-pyrrolo[2,3-d]pyrimidine-6-carboxamide], the IC50 is 1000 to 1900 nM.

The compound `CN(C)C(=O)c1cc2cnc(Nc3ccc(N4CCC(N(C)Cc5ccc(N6CCC(=O)NC6=O)cn5)CC4)cn3)nc2n1C1CCCC1` [GT-06493, 7-cyclopentyl-2-((5-(4-(((5-(2,4-dioxotetrahydropyrimidin-1(2H)-yl)pyridin-2-yl)methyl)(methyl)amino)piperidin-1-yl)pyridin-2-yl)amino)-N,N-dimethyl-7H-pyrrolo[2,3-d]pyrimidine-6-carboxamide] yielded an IC50 of 500 to 1000 nM.

In turn, `CC(=O)c1c(C)c2cnc(Nc3ccc(N4CCN(Cc5ccc(C6CCC(=O)NC6=O)cc5)CC4)cn3)nc2n(C2CCCC2)c1=O` (stereo not shown) [GT-06575, 3-(4-((4-(6-((6-acetyl-8-cyclopentyl-5-methyl-7-oxo-7,8-dihydropyrido[2,3-d]pyrimidin-2-yl)amino)pyridin-3-yl)piperazin-1-yl)methyl)phenyl)piperidine-2,6-dione] displayed an IC50 of 500 to 1000 nM.
